Measured values: patent publication US9399649B2, “Compounds for treating spinal muscular atrophy” (PTC Therapeutics Inc., priority 2012, dated 2016)

Tests used:
[1] = test system: Smn protein; assay: Smn protein assay in cultured cells (SMN HTRF); format: cell-based, human; settings: SMA patient fibroblast cells (GM03813), 48 hours; for maximum fold (Fold) increase of Smn protein: 7-point concentration data, relative to vehicle control; for EC1.5x for Smn protein expression: 7-point concentration curve, concentration producing 1.5 times Smn protein vs DMSO vehicle
Procedure: The SMN HTRF (homogeneous time resolved fluorescence) assay is used to quantify the level of Smn protein in SMA patient fibroblast cells treated with test compounds.
Cells are thawed and cultured in DMEM-10% FBS for 72 hours. Cells are trypsinized, counted and re-suspended to a concentration of 25,000 cells/mL in DMEM-10% FBS. The cell suspensions are plated at 5,000 cells per well in a 96 well microtiter plate and incubated for 3 to 5 hours. […] Test compounds are serially diluted 3.16-fold in 100% DMSO to generate a 7-point concentration curve. 1 μL of test compound solution is transferred to cell-containing wells and cells are incubated for 48 hours in a cell culture incubator (37° C., 5% CO2, 100% relative humidity). Triplicate samples are set up for each test compound concentration. After 48 hours, the supernatant is removed from the wells and 25 μL of the RIPA lysis buffer, containing protease inhibitors, is added to the wells and incubated with shaking at room temperature for 1 hour. 25 μL of the diluent is added and then 35 μL of the resulting lysate is transferred to a 384-well plate, where each well contains 5 μL of the antibody solution (1:100 dilution of anti-SMN d2 and anti-SMN kryptate in SMN reconstitution buffer). The plate is centrifuged for 1 minute to bring the solution to the bottom of the wells, then incubated overnight at room temperature. Fluorescence for each well of the plate at 665 nm and 620 nm is measured on an EnVision multilabel plate reader (Perkin-Elmer).
The normalized fluorescence signal is calculated for each sample, Blank and vehicle control well by dividing the signal at 665 nm by the signal at 620 nm. Normalizing the signal accounts for possible fluorescence quenching due to the matrix effect of the lysate. The ΔF value (a measurement of Smn protein abundance as a percent value) for each sample well is calculated by subtracting the normalized average fluorescence for the Blank control wells from the normalized fluorescence for each sample well, then dividing this difference by the normalized average fluorescence for the Blank control wells and multiplying the resulting value by 100. The ΔF value for each sample well represents the Smn protein abundance from test compound-treated samples. The ΔF value for each sample well is divided by the ΔF value for the vehicle control wells to calculate the fold increase in Smn protein abundance relative to the vehicle control.

[2] = test system: full length SMN2 minigene mRNA containing SMN2 exon 7; assay: SMN2 minigene mRNA splicing RT-qPCR assay in cultured cells; format: cell-based, human; settings: Homo sapiens, HEK293-H; HEK293H cells stably transfected with SMN2-A minigene, 24 hours, 7-point concentration curve; concentration giving 1.5-fold full length SMN2 mRNA vs vehicle; read-out: EC1.5x for production of full length SMN2 mRNA
Procedure: The reverse transcription-quantitative PCR-based (RT-qPCR) assay is used to quantify the level of the full length SMN2 minigene mRNA containing SMN2 exon 7 in a HEK293H cell line stably transfected with said minigene and treated with a test compound.
HEK293H cells stably transfected with the SMN2-A minigene construct described above (10,000 cells/well) are seeded in 200 ut, of cell culture medium (DMEM plus 10% FBS, with 200 μg/mL hygromycin) in 96-well flat-bottom plates and the plate is immediately swirled to ensure proper dispersal of cells, forming an even monolayer of cells. Cells are allowed to attach for at least 4-6 hours. Test compounds are serially diluted 3.16-fold in 100% DMSO to generate a 7-point concentration curve. A solution of test compound (1 μL, 200× in DMSO) is added to each cell-containing well and the plate is incubated for 24 hours in a cell culture incubator (37° C., 5% CO2, 100% relative humidity). 2 replicates are prepared for each test compound concentration. The cells are then lysed in Cells-To-Ct lysis buffer and the lysate is stored at −80° C.
Primer SMN Forward A (SEQ ID NO. 1) hybridizes to a nucleotide sequence in exon 7 (nucleotide 22 to nucleotide 40), primer SMN Reverse A (SEQ ID NO. 2) hybridizes to a nucleotide sequence in the coding sequence of Firefly luciferase, SMN Probe A (SEQ ID NO. 3) hybridizes to a nucleotide sequence in exon 7 (nucleotide 50 to nucleotide 54) and exon 8 (nucleotide 1 to nucleotide 21). The combination of these three oligonucleotides detects only SMN1 or SMN2 minigenes (RT-qPCR) and will not detect endogenous SMN1 or SMN2 genes.
The SMN forward and reverse primers are used at final concentrations of 0.4 μM. The SMN probe is used at a final concentration of 0.15 μM. The GAPDH primers are used at final concentrations of 0.2 μM and the probe at 0.15 μM.
The SMN2-minigene GAPDH mix (15 μL total volume) is prepared by combining 7.5 μL of 2×RT-PCR buffer, 0.4 μL of 25×RT-PCR enzyme mix, 0.75 μL of 20×GAPDH primer-probe mix, 4.0075 μL of water, 2 μL of 10-fold diluted cell lysate, 0.06 μL of 100 μM SMN forward primer, 0.06 μL of 100 μM SMN reverse primer, and 0.225 μL of 100 μM SMN probe.
PCR is carried out at the following temperatures for the indicated time: Step 1: 48° C. (15 min); Step 2: 95° C. (10 min); Step 3: 95° C. (15 sec); Step 4: 60° C. (1 min); then repeat Steps 3 and 4 for a total of 40 cycles.
Each reaction mixture contains both SMN2-A minigene and GAPDH primersprobe sets (multiplex design), allowing simultaneous measurement of the levels of two transcripts.
Two SMN spliced products are generated from the SMN2 minigene. The first spliced product containing exon 7, corresponding to full length SMN2 mRNA, is referred to herein using the term “SMN2 minigene FL.” The second spliced product lacking exon 7 is referred to herein using the term “SMN2 minigene Δ7.”
The increase of SMN2 minigene FL mRNA relative to that in cells treated with vehicle control is determined from real-time PCR data using a modified ΔΔCt method (as described in Livak and Schmittgen, Methods, 2001, 25:402-8). The amplification efficiency (E) is calculated from the slope of the amplification curve for SMN2 minigene FL and GAPDH individually. The abundances of SMN2 minigene FL and GAPDH are then calculated as (1+E)^−Ct, where Ct is the threshold value for each amplicon. The abundance of SMN2 minigene FL is normalized to GAPDH abundance. The normalized SMN2 minigene FL abundance from test compound-treated samples is then divided by normalized SMN2 minigene FL abundance from vehicle-treated cells to determine the level of SMN2 FL mRNA relative to vehicle control.

Compound: O=c1oc(-c2ccccn2)cc2ccc(N3CCNCC3)cc12 [Cpd 1, 7-(piperazin-1-yl)-3-(pyridin-2-yl)-1H-isochromen-1-one]
- melting point: 179 to 181 °C
- maximum fold (Fold) increase of Smn protein [1]: ** (a fold increase between >1.2 and ≦1.35 is indicated by two stars (**))
- EC (1.5-fold) [2]: 1 to 3 µM

Compound: O=c1oc(-c2ccsc2)cc2ccc(N3CCNCC3)cc12 [Cpd 2, 7-(piperazin-1-yl)-3-(thiophen-3-yl)-1H-isochromen-1-one]
- melting point: 240 °C (dec.)
- maximum fold (Fold) increase of Smn protein [1]: ** (a fold increase between >1.2 and ≦1.35 is indicated by two stars (**))
- EC (1.5-fold) [2]: 0.3 to 1 µM

Compound: COc1ccc(-c2cc3ccc(N4CCNCC4)cc3c(=O)o2)cc1OC [Cpd 3, 3-(3,4-dimethoxyphenyl)-7-(piperazin-1-yl)-1H-isochromen-1-one]
- melting point: 142 to 143 °C
- EC1.5x for Smn protein expression [1]: *** (an EC1.5× between >0.3 nM and ≦1 nM is indicated by three stars (***))
- maximum fold (Fold) increase of Smn protein [1]: **** (a fold increase between >1.5 and ≦1.65 is indicated by four stars (****))
- EC (1.5-fold) [2]: ≤ 0.1 µM

Compound: CN1CCN(c2ccc3cc(-c4ccccn4)oc(=O)c3c2)CC1 [Cpd 4, 7-(4-methylpiperazin-1-yl)-3-(pyridin-2-yl)-1H-isochromen-1-one]
- melting point: 174 to 176 °C
- maximum fold (Fold) increase of Smn protein [1]: * (A maximum fold increase of ≦1.2 is indicated by one star (*))
- EC (1.5-fold) [2]: 3 to 30 µM

Compound: C[C@@H]1CN(c2ccc3cc(-c4ccccn4)oc(=O)c3c2)C[C@H](C)N1 [Cpd 5, 7-[(3R,5S)-3,5-dimethylpiperazin-1-yl]-3-(pyridin-2-yl)-1H-isochromen-1-one]
- melting point: 168 to 170 °C
- maximum fold (Fold) increase of Smn protein [1]: * (A maximum fold increase of ≦1.2 is indicated by one star (*))
- EC (1.5-fold) [2]: 1 to 3 µM

Compound: COc1ccc(-c2cc3ccc(N4CCN(C)CC4)cc3c(=O)o2)cc1OC [Cpd 16, 3-(3,4-dimethoxyphenyl)-7-(4-methylpiperazin-1-yl)-1H-isochromen-1-one]
- maximum fold (Fold) increase of Smn protein [1]: *** (a fold increase between >1.35 and ≦1.5 is indicated by three stars (***))
- EC (1.5-fold) [2]: 0.3 to 1 µM

Compound: Cc1cn2cc(-c3cc4ccc(N5CCNCC5)cc4c(=O)o3)nc2c(C)n1 [Cpd 62, 3-(6,8-dimethylimidazo[1,2-a]pyrazin-2-yl)-7-(piperazin-1-yl)-1H-isochromen-1-one]
- EC1.5x for Smn protein expression [1]: **** (an EC1.5×≦0.3 nM is indicated by four stars (****))
- maximum fold (Fold) increase of Smn protein [1]: ***** (a fold increase >1.65 is indicated by five stars (*****))
- EC (1.5-fold) [2]: ≤ 0.1 µM

Compound: Cc1cn2cc(-c3cc4ccc(N5CCN6CCC[C@@H]6C5)cc4c(=O)o3)nc2c(C)n1 [Cpd 70, 3-(6,8-dimethylimidazo[1,2-a]pyrazin-2-yl)-7-[(8aR)-hexahydropyrrolo[1,2-a]pyrazin-2(1H)-yl]-1H-isochromen-1-one]
- EC1.5x for Smn protein expression [1]: *** (an EC1.5× between >0.3 nM and ≦1 nM is indicated by three stars (***))
- maximum fold (Fold) increase of Smn protein [1]: **** (a fold increase between >1.5 and ≦1.65 is indicated by four stars (****))
- EC (1.5-fold) [2]: 0.1 to 0.3 µM

Compound: Cc1cn2cc(-c3cc4ccc(C5CCN(C6CCC6)CC5)cc4c(=O)o3)nc2c(C)n1 [Cpd 118, 7-(1-cyclobutylpiperidin-4-yl)-3-(6,8-dimethylimidazo[1,2-a]pyrazin-2-yl)-1H-isochromen-1-one]
- EC1.5x for Smn protein expression [1]: **** (an EC1.5×≦0.3 nM is indicated by four stars (****))
- maximum fold (Fold) increase of Smn protein [1]: **** (a fold increase between >1.5 and ≦1.65 is indicated by four stars (****))
- EC (1.5-fold) [2]: ≤ 0.1 µM

Compound: Cc1cn2cc(-c3cc4ccc(N5C[C@@H](C)N(C6CCC6)[C@@H](C)C5)cc4c(=O)o3)nc2cn1 [Cpd 132, 7-[(3R,5S)-4-cyclobutyl-3,5-dimethylpiperazin-1-yl]-3-(6-methylimidazo[1,2-a]pyrazin-2-yl)-1H-isochromen-1-one]
- EC1.5x for Smn protein expression [1]: **** (an EC1.5×≦0.3 nM is indicated by four stars (****))
- maximum fold (Fold) increase of Smn protein [1]: ***** (a fold increase >1.65 is indicated by five stars (*****))
- EC (1.5-fold) [2]: ≤ 0.1 µM

Compound: Cc1cn2cc(-c3cc4ccc(N5CCN(CCO)[C@H](C)C5)cc4c(=O)o3)nc2cn1 [Cpd 133, 7-[(3R)-4-(2-hydroxyethyl)-3-methylpiperazin-1-yl]-3-(6-methylimidazo[1,2-a]pyrazin-2-yl)-1H-isochromen-1-one]
- EC1.5x for Smn protein expression [1]: **** (an EC1.5×≦0.3 nM is indicated by four stars (****))
- maximum fold (Fold) increase of Smn protein [1]: ***** (a fold increase >1.65 is indicated by five stars (*****))
- EC (1.5-fold) [2]: ≤ 0.1 µM

Compound: Cc1cn2cc(-c3cc4ccc(N5CCN(CCO)[C@@H](C)C5)cc4c(=O)o3)nc2c(C)n1 [Cpd 134, 3-(6,8-dimethylimidazo[1,2-a]pyrazin-2-yl)-7-[(3S)-4-(2-hydroxyethyl)-3-methylpiperazin-1-yl]-1H-isochromen-1-one]
- EC1.5x for Smn protein expression [1]: **** (an EC1.5×≦0.3 nM is indicated by four stars (****))
- maximum fold (Fold) increase of Smn protein [1]: ***** (a fold increase >1.65 is indicated by five stars (*****))
- EC (1.5-fold) [2]: ≤ 0.1 µM

Compound: CCc1nc(C)cn2cc(-c3cc4ccc(N5CCNCC5)cc4c(=O)o3)nc12 [Cpd 150, 3-(8-ethyl-6-methylimidazo[1,2-a]pyrazin-2-yl)-7-(piperazin-1-yl)-1H-isochromen-1-one]
- EC1.5x for Smn protein expression [1]: **** (an EC1.5×≦0.3 nM is indicated by four stars (****))
- maximum fold (Fold) increase of Smn protein [1]: ***** (a fold increase >1.65 is indicated by five stars (*****))
- EC (1.5-fold) [2]: ≤ 0.1 µM
